Experimental findings from patent US20220142948A1, “COMPOSITIONS AND METHODS FOR MODULATING METABOLIC REGULATORS OF T CELL PATHOGENICITY” (The Broad Institute, Inc., priority 2019, published 2022) are described below.

Assay [1] concerns Th17 cells (Th17n, Th17p). Kind of assay: T cell differentiation culture and flow cytometry (intracellular cytokine and transcription factor staining, CellTrace proliferation).
Protocol: Naïve CD4+CD44-CD62L+CD25-T cells were sorted using BD FACSAria sorter and activated with plate-bound anti-CD3 (1 μg/ml) and antiCD28 antibodies (2 μg/ml) in the presence of cytokines at a concentration of 5×10^5 cells/ml.
Naïve CD4+CD44-CD62L+CD25− T cells with or without including IL-17A.GFP+ were sorted using BD FACSAria sorter and activated with plate-bound anti-CD3 and antiCD28 antibodies (each 1 μg/ml) in the presence of cytokines at a concentration of 5×10^5 cells/ml. For T cell differentiations the following combinations of cytokines were used: pathogenic Th17 (Th17p): 25 ng/ml rmIL-6, 20 ng/ml rmIL-1b (both Miltenyi Biotec) and 20 ng/ml rmIL-23 (R&D systems); non-pathogenic Th17 (Th17n): 25 ng/ml rmIL-6 and 2 ng/ml of rhTGFb1 (Miltenyi Biotec). For differentiation experiments, cells were harvested at 72 hours and were performed in the presence or absence of 50 μM EGCG (Selleck Chemicals), 50 μM DHEA, 40 μM DCA, 10 μM Shikonin (all Sigma) as indicated.
Proliferation was assessed by staining with CellTrace Violet (Thermo Fisher Scientific) per manufacturer's instructions. All stainings were analyzed on a FACS LSR II (BD Bioscience) and using FlowJo software.
Assay [2] relates to Th17 cells (Th17n, Th17p). Put plainly: Legendplex analysis of cytokines in culture supernatant. Type of assay: cell-based, mouse. The method, then:
Legendplex. Cytokine concentrations in supernatants of in vitro cultures were analyzed by the LegendPlex Mouse Th Cytokine Panel (13-plex) (BioLegend) according to the manufacturer's instructions and analyzed on a FACS LSR II (BD Biosciences).
Seahorse assay was performed and seahorse media was prepared following manufacturer instructions (Agilent). Cells were re-stimulated with PMA/ionomycin for four hours in the presence of brefaldin and monensin before analysis for cytokines by intracellular cytokine staining. Cytokine concentrations in supernatants of in vitro cultures were analyzed by the LegendPlex Mouse Th Cytokine Panel (13-plex) (BioLegend) according to the manufacturer's instructions and analyzed on a FACS LSR II (BD Biosciences).

Assay [3] deals with MOG35-55 specific T cells. Kind of assay: Antigen-specific recall response of draining lymph node cells to MOG35-55 (thymidine incorporation, Legendplex). The class given is in vivo, mouse. The method, then:
FIG. 37A-37I—Targeting ODC1 and SAT1 alleviate EAE. (A) Schematics of the polyamine pathway; (B-D) The effects of chemical inhibition of ODC1 by DFMO on EAE. Wildtype mice were immunized with MOG35-55/CFA to induce experimental autoimmune encephalomyelitis and followed for clinical scoring. DFMO were provided in drinking water from day 0 for 10 days in experimental group. B, Clinical score over time. […] C, Antigen-specific cell proliferation is measured by thymidine incorporation after culturing cells isolated from draining lymph node of mice (d15 post immunization) with increasing dose of MOG35-55 peptide for 3 days. D, Flow cytometric analysis of intracellular Foxp3 expression in T cells isolated from CNS at day 15 post immunization. (E-I) The effects of genetic perturbation of SAT1. E, The effects of SAT1 deficiency on metabolome. Abundance of metabolites in the polyamine pathway were determined by LC/MS based metabolomics. Th17n and Th17p cells were differentiated in vitro from naïve cells isolated from WT or SAT1^−/− mice. (F-I) The effects of SAT1 deficiency on EAE. EAE were induced as in (B) in wildtype and SAT1^fl/flCD4^cre mice. F, Clinical score (left) and histological score (right) showing the number of CNS infiltrates show representative experiment with 5 WT and 8 CKO mice. G-H, Cells were isolated from draining lymph node of mice (d23 post immunization) and co-cultured with increasing dose of MOG35-55 peptide for 3 days. Antigen-specific cell proliferation is measured by thymidine incorporation (G) and antigen-specific cytokine secretion by legendplex (H). I, Flow cytometry analysis of intracellular transcription factor expression in CD4 T cells isolated from CNS day 15 post immunization. Linear regression analysis (b, c, f, g), two-way anova (e) and student t test (d, i) were used for statistical analysis.
FIG. 46A-46J—EGCG exacerbates and DHEA ameliorates Th17-induced EAE in vivo. 2D2 TCR-transgenic Th17 cells were adoptively transferred after differentiation in vitro in the presence of an inhibitor or vehicle as indicated. (A, C, G) Clinical outcome of EAE; (B, D) Histological score based on cell infiltrates in meninges and parenchyma of CNS; (E, F) Draining lymph node (cervical) from respective mice were isolated and pulsed with increasing dose of MOG35-55 peptide for 3 days and (E) subjected to thymidine incorporation assay; or (F) measurement of cytokine secretion by Legendplex and flow cytometry. Concentrations were normalized through division by the respective response to no antigen control (H-I) Independent pathological report of CNS isolated from mice with EAE at end point (d35 for EGCG experiments; d28 for DHEA experiment); Optic nerves were not found in the histologic section from one animal in the EGCG+IL-23 group. (J) Representative histology of spinal cord and spinal nerve roots. […] PC, posterior column; PH, posterior horn. Individual mouse numbers are indicated. […] All are H. & E., 40× objective. Three similar experiments were performed.

The mark [4] stands for this setting: cMAF fl/fl CD4cre Th17 cells vs control.
Setting [5] is: supernatant from both Th17n and Th17p cultures.
Setting [6] is: mice transferred with EGCG-treated Th17n cells.

“Also recorded” adds a separate entry of the source.

Consider `NCCC[C@](N)(C(=O)O)C(F)F` [DFMO, 2-(difluoromethyl)ornithine], for which, in assay [1] (DFMO at 4-5 days only (expansion phase)), the “IL-17+ cells” value is “no change”. Also, the “IL-17+ cells” value in assay [1] (DFMO at both days 1-3 and days 4-5) is listed as “decrease”. For the same compound, the “IL-17+ cells” value in assay [1] (DFMO at days 1-3 only (differentiation)) is on record as “decrease”. The “IL-17 positive CD4 T cells” value in assay [1] (FACS, Th17 condition not stated) was “decreased”. The cell proliferation entry in assay [1] (Th17 cultures) was “less cell proliferation; also recorded: reduced cell proliferation”. Besides, in assay [1] (Th17n (non-pathogenic) condition), the “frequency of Foxp3+ cells / Foxp3 expression” value is listed as “increase; also recorded: increased frequency”. The “upregulation of Foxp3 by DFMO” value in assay [1] (Th17n cells, absence of JMJD3 (JMJD3fl/flCD4cre)) is listed as “partially abrogated”. Also, in assay [1] (Th17p cells), the Rorgt expression entry was “suppressed” and the Tbet expression result was “suppressed”. Besides, in assay [1] (setting [4]), the “effect of DFMO on Foxp3 upregulation” value was “partially rescued” and the “effect of DFMO on expression of IL-17” value is “did not impact”. Besides, the “frequency of IL-17+ cells” value in assay [1] (cells that have divided just once) is recorded as “significantly reduced”. For the same compound, the “FoxP3 CD4 T cells” value in assay [1] (condition not stated) is recorded as “increase”. Moreover, the IL-17 expression result in assay [1] (intracellular staining, both Th17n and Th17p cells) was “suppresses IL-17 expression; also recorded: significantly inhibited”. Besides, the Rorgt expression result in assay [1] (pathogenic and non-pathogenic Th17 cells) is “did not consistently alter; also recorded: does not alter”. Moreover, the “DFMO-dependent upregulation of IL-10” value in assay [2] (Th17n cells, loss of JMJD3, supernatant) was “reduced”. Besides, the IL-13 result in assay [2] (pathogenic Th17 cells) is on record as “decreased”. Further, the IL-9 result in assay [2] (protein, Th17n and Th17p cultures) is recorded as “promoted; also recorded: promoting”. For the same compound, in assay [2] (setting [5]), the IL-17A result is “significantly inhibited” and the IL-17F entry is given as “significantly inhibited”. Besides, in assay [2] (supernatant, Th17n and Th17p), the IFNg entry is recorded as “did not consistently influence”, the IL-5 entry is on record as “did not consistently influence”, the IL-10 result is given as “did not consistently influence” and the IL-13 result is “did not consistently influence”. Moreover, the TNFa entry in assay [2] (supernatant, Th17n and Th17p) was “did not consistently influence”. Further, the “antigen-specific recall response / proliferation (thymidine incorporation)” value in assay [3] (draining lymph node of DFMO treated EAE animals) is “decreases H3 incorporation; also recorded: decreases proliferation of immune cells; also recorded: significantly reduced”.
As to epigallocatechin-3-gallate [EGCG], in assay [1] (Th17n cells), the IFNg expression result is “upregulation”, the IL-10 result was “suppression” and the Tbet expression entry is given as “upregulation”. The “IL-17 positive CD4 T cells / IL-17 expression” value in assay [1] (glycolysis enzyme inhibitors, non-pathogenic or pathogenic Th17 conditions, cells after one division) is listed as “increase”. Besides, in assay [2] (glycolysis enzyme inhibitors, Th17 cell cultures), the “cytokine profile / cytokine production” value is “retained their cytokine profile”. In assay [3] (setting [6]), the “antigen-specific T cell proliferation” value is given as “only a small difference”, the “secretion of IL-6 in response to antigen” value is “significant increase”, the “secretion of IL-17F in response to antigen” value is given as “significant increase” and the “secretion of IL-17 in response to antigen” value is listed as “significant increase”. Further, the “secretion of IL-22 in response to antigen” value in assay [3] (setting [6]) is recorded as “significant increase”.
